{
  "source": "patent US12479804B2",
  "about": "“Herbicidal compounds” (SYNGENTA CROP PROTECTION AG, priority 2019, dated 2025)",
  "assay_in_all_cases": "Glasshouse herbicidal test, pre- and post-emergence, percentage damage to the plant",
  "type_in_all_cases": "in vivo",
  "key": {"[1]": {"tested_on": "Alopecurus myosuroides (ALOMY)", "conditions": "250 g/h, evaluated after 13 days; for ALOMY POST percentage damage caused to the plant (five-point scale): post-emergence; for ALOMY PRE percentage damage caused to the plant (five-point scale): pre-emergence", "protocol": "(§1) Seeds of a variety of test species are sown in standard soil in pots (Lolium perenne (LOLPE), Setaria faberi (SETFA), Alopecurus myosuroides (ALOMY), Echinochloa crus-galli (ECHCG), Avena fatua (AVEFA)). After cultivation for one day (pre-emergence) or after 8 days cultivation (post-emergence) under controlled conditions in a glasshouse (at 24/16° C., day/night; 14 hours light; 65% humidity), the plants are sprayed with an aqueous spray solution derived from the formulation of the technical active ingredient in acetone/water (50:50) solution containing 0.5% Tween 20 (polyoxyethelyene sorbitan monolaurate, CAS RN 9005-64-5). Compounds are applied at 250 g/h. The test plants are then grown in a glasshouse under controlled conditions in a glasshouse (at 24/16° C., day/night; 14 hours light; 65% humidity) and watered twice daily. After 13 days for pre and post-emergence, the test is evaluated for the percentage damage caused to the plant. The biological activities are shown in the following table on a five-point scale (5=80-100%; 4=60-79%; 3=40-59%; 2=20-39%; 1=0-19%)."}, "Avena fatua (AVEFA)": {"tested_on": "Avena fatua (AVEFA)", "conditions": "250 g/h, evaluated after 13 days; for AVEFA POST percentage damage caused to the plant (five-point scale): post-emergence; for AVEFA PRE percentage damage caused to the plant (five-point scale): pre-emergence", "protocol": "as §1"}, "[2]": {"tested_on": "Echinochloa crus-galli (ECHCG)", "conditions": "250 g/h, evaluated after 13 days; for ECHCG POST percentage damage caused to the plant (five-point scale): post-emergence; for ECHCG PRE percentage damage caused to the plant (five-point scale): pre-emergence", "protocol": "as §1"}, "Lolium perenne (LOLPE)": {"tested_on": "Lolium perenne (LOLPE)", "conditions": "250 g/h, evaluated after 13 days; for LOLPE POST percentage damage caused to the plant (five-point scale): post-emergence; for LOLPE PRE percentage damage caused to the plant (five-point scale): pre-emergence", "protocol": "as §1"}, "Setaria faberi (SETFA)": {"tested_on": "Setaria faberi (SETFA)", "conditions": "250 g/h, evaluated after 13 days; for SETFA POST percentage damage caused to the plant (five-point scale): post-emergence; for SETFA PRE percentage damage caused to the plant (five-point scale): pre-emergence", "protocol": "as §1"}},
  "data": [
    {"smiles": "CC#Cc1cc(C)c(C2C(=O)CC3(CCCN(C(=O)OC(C)(C)C)CC3)CC2=O)c(C)c1", "note": "(stereo not drawn) [Compound A6]", "values": [
      {"measurement": "ALOMY POST percentage damage caused to the plant (five-point scale)", "setting": "[1]", "result": "5 (5=80-100%)"},
      {"measurement": "ALOMY PRE percentage damage caused to the plant (five-point scale)", "setting": "[1]", "result": "4 (4=60-79%)"},
      {"measurement": "AVEFA POST percentage damage caused to the plant (five-point scale)", "setting": "Avena fatua (AVEFA)", "result": "4 (4=60-79%)"},
      {"measurement": "AVEFA PRE percentage damage caused to the plant (five-point scale)", "setting": "Avena fatua (AVEFA)", "result": "4 (4=60-79%)"},
      {"measurement": "ECHCG POST percentage damage caused to the plant (five-point scale)", "setting": "[2]", "result": "5 (5=80-100%)"},
      {"measurement": "ECHCG PRE percentage damage caused to the plant (five-point scale)", "setting": "[2]", "result": "5 (5=80-100%)"},
      {"measurement": "LOLPE POST percentage damage caused to the plant (five-point scale)", "setting": "Lolium perenne (LOLPE)", "result": "5 (5=80-100%)"},
      {"measurement": "LOLPE PRE percentage damage caused to the plant (five-point scale)", "setting": "Lolium perenne (LOLPE)", "result": "5 (5=80-100%)"},
      {"measurement": "SETFA POST percentage damage caused to the plant (five-point scale)", "setting": "Setaria faberi (SETFA)", "result": "5 (5=80-100%)"},
      {"measurement": "SETFA PRE percentage damage caused to the plant (five-point scale)", "setting": "Setaria faberi (SETFA)", "result": "5 (5=80-100%)"}
    ]},
    {"smiles": "CC#Cc1cc(C)c(C2C(=O)CC3(C=CN(C(=O)NC(=O)c4ccccn4)CC3)CC2=O)c(C)c1", "note": "(stereo not drawn) [Compound A57]", "values": [
      {"measurement": "ALOMY POST percentage damage caused to the plant (five-point scale)", "setting": "[1]", "result": "5 (5=80-100%)"},
      {"measurement": "ALOMY PRE percentage damage caused to the plant (five-point scale)", "setting": "[1]", "result": "5 (5=80-100%)"},
      {"measurement": "AVEFA POST percentage damage caused to the plant (five-point scale)", "setting": "Avena fatua (AVEFA)", "result": "5 (5=80-100%)"},
      {"measurement": "AVEFA PRE percentage damage caused to the plant (five-point scale)", "setting": "Avena fatua (AVEFA)", "result": "4 (4=60-79%)"},
      {"measurement": "ECHCG POST percentage damage caused to the plant (five-point scale)", "setting": "[2]", "result": "5 (5=80-100%)"},
      {"measurement": "ECHCG PRE percentage damage caused to the plant (five-point scale)", "setting": "[2]", "result": "5 (5=80-100%)"},
      {"measurement": "LOLPE POST percentage damage caused to the plant (five-point scale)", "setting": "Lolium perenne (LOLPE)", "result": "5 (5=80-100%)"},
      {"measurement": "LOLPE PRE percentage damage caused to the plant (five-point scale)", "setting": "Lolium perenne (LOLPE)", "result": "5 (5=80-100%)"},
      {"measurement": "SETFA POST percentage damage caused to the plant (five-point scale)", "setting": "Setaria faberi (SETFA)", "result": "5 (5=80-100%)"},
      {"measurement": "SETFA PRE percentage damage caused to the plant (five-point scale)", "setting": "Setaria faberi (SETFA)", "result": "5 (5=80-100%)"}
    ]},
    {"smiles": "CC#Cc1cc(C)c(C2C(=O)CC3(CCC(=O)N(C(C)=O)C3)CC2=O)c(C)c1", "note": "(stereo not drawn) [Compound A11]", "values": [
      {"measurement": "ALOMY POST percentage damage caused to the plant (five-point scale)", "setting": "[1]", "result": "5 (5=80-100%)"},
      {"measurement": "ALOMY PRE percentage damage caused to the plant (five-point scale)", "setting": "[1]", "result": "5 (5=80-100%)"},
      {"measurement": "AVEFA POST percentage damage caused to the plant (five-point scale)", "setting": "Avena fatua (AVEFA)", "result": "5 (5=80-100%)"},
      {"measurement": "AVEFA PRE percentage damage caused to the plant (five-point scale)", "setting": "Avena fatua (AVEFA)", "result": "3 (3=40-59%)"},
      {"measurement": "ECHCG POST percentage damage caused to the plant (five-point scale)", "setting": "[2]", "result": "5 (5=80-100%)"},
      {"measurement": "ECHCG PRE percentage damage caused to the plant (five-point scale)", "setting": "[2]", "result": "5 (5=80-100%)"},
      {"measurement": "LOLPE POST percentage damage caused to the plant (five-point scale)", "setting": "Lolium perenne (LOLPE)", "result": "5 (5=80-100%)"},
      {"measurement": "LOLPE PRE percentage damage caused to the plant (five-point scale)", "setting": "Lolium perenne (LOLPE)", "result": "5 (5=80-100%)"},
      {"measurement": "SETFA POST percentage damage caused to the plant (five-point scale)", "setting": "Setaria faberi (SETFA)", "result": "5 (5=80-100%)"},
      {"measurement": "SETFA PRE percentage damage caused to the plant (five-point scale)", "setting": "Setaria faberi (SETFA)", "result": "5 (5=80-100%)"}
    ]},
    {"smiles": "CC#Cc1cc(C)c(C2C(=O)CC3(C=CN(C(=O)NC(C)(C)C)CC3)CC2=O)c(C)c1", "note": "(stereo not drawn) [Compound A53]", "values": [
      {"measurement": "ALOMY POST percentage damage caused to the plant (five-point scale)", "setting": "[1]", "result": "5 (5=80-100%)"},
      {"measurement": "ALOMY PRE percentage damage caused to the plant (five-point scale)", "setting": "[1]", "result": "5 (5=80-100%)"},
      {"measurement": "AVEFA POST percentage damage caused to the plant (five-point scale)", "setting": "Avena fatua (AVEFA)", "result": "4 (4=60-79%)"},
      {"measurement": "AVEFA PRE percentage damage caused to the plant (five-point scale)", "setting": "Avena fatua (AVEFA)", "result": "2 (2=20-39%)"},
      {"measurement": "ECHCG POST percentage damage caused to the plant (five-point scale)", "setting": "[2]", "result": "5 (5=80-100%)"},
      {"measurement": "ECHCG PRE percentage damage caused to the plant (five-point scale)", "setting": "[2]", "result": "5 (5=80-100%)"},
      {"measurement": "LOLPE POST percentage damage caused to the plant (five-point scale)", "setting": "Lolium perenne (LOLPE)", "result": "5 (5=80-100%)"},
      {"measurement": "LOLPE PRE percentage damage caused to the plant (five-point scale)", "setting": "Lolium perenne (LOLPE)", "result": "5 (5=80-100%)"},
      {"measurement": "SETFA POST percentage damage caused to the plant (five-point scale)", "setting": "Setaria faberi (SETFA)", "result": "5 (5=80-100%)"},
      {"measurement": "SETFA PRE percentage damage caused to the plant (five-point scale)", "setting": "Setaria faberi (SETFA)", "result": "5 (5=80-100%)"}
    ]},
    {"smiles": "CC#Cc1cc(C)c(C2C(=O)CC3(CCN(C(C)=O)C3)CC2=O)c(C)c1", "note": "(stereo not drawn) [Compound A4]", "values": [
      {"measurement": "ALOMY POST percentage damage caused to the plant (five-point scale)", "setting": "[1]", "result": "5 (5=80-100%)"},
      {"measurement": "ALOMY PRE percentage damage caused to the plant (five-point scale)", "setting": "[1]", "result": "5 (5=80-100%)"},
      {"measurement": "AVEFA POST percentage damage caused to the plant (five-point scale)", "setting": "Avena fatua (AVEFA)", "result": "5 (5=80-100%)"},
      {"measurement": "AVEFA PRE percentage damage caused to the plant (five-point scale)", "setting": "Avena fatua (AVEFA)", "result": "5 (5=80-100%)"},
      {"measurement": "ECHCG POST percentage damage caused to the plant (five-point scale)", "setting": "[2]", "result": "5 (5=80-100%)"},
      {"measurement": "ECHCG PRE percentage damage caused to the plant (five-point scale)", "setting": "[2]", "result": "5 (5=80-100%)"},
      {"measurement": "LOLPE POST percentage damage caused to the plant (five-point scale)", "setting": "Lolium perenne (LOLPE)", "result": "5 (5=80-100%)"},
      {"measurement": "LOLPE PRE percentage damage caused to the plant (five-point scale)", "setting": "Lolium perenne (LOLPE)", "result": "5 (5=80-100%)"},
      {"measurement": "SETFA POST percentage damage caused to the plant (five-point scale)", "setting": "Setaria faberi (SETFA)", "result": "5 (5=80-100%)"},
      {"measurement": "SETFA PRE percentage damage caused to the plant (five-point scale)", "setting": "Setaria faberi (SETFA)", "result": "5 (5=80-100%)"}
    ]},
    {"smiles": "CC#Cc1cc(C)c(C2C(=O)CC3(C=CN(C(=O)NC(=O)C(C)(C)C)CC3)CC2=O)c(C)c1", "note": "(stereo not drawn) [Compound A54]", "values": [
      {"measurement": "ALOMY POST percentage damage caused to the plant (five-point scale)", "setting": "[1]", "result": "5 (5=80-100%)"},
      {"measurement": "ALOMY PRE percentage damage caused to the plant (five-point scale)", "setting": "[1]", "result": "5 (5=80-100%)"},
      {"measurement": "AVEFA POST percentage damage caused to the plant (five-point scale)", "setting": "Avena fatua (AVEFA)", "result": "5 (5=80-100%)"},
      {"measurement": "AVEFA PRE percentage damage caused to the plant (five-point scale)", "setting": "Avena fatua (AVEFA)", "result": "5 (5=80-100%)"},
      {"measurement": "ECHCG POST percentage damage caused to the plant (five-point scale)", "setting": "[2]", "result": "5 (5=80-100%)"},
      {"measurement": "ECHCG PRE percentage damage caused to the plant (five-point scale)", "setting": "[2]", "result": "5 (5=80-100%)"},
      {"measurement": "LOLPE POST percentage damage caused to the plant (five-point scale)", "setting": "Lolium perenne (LOLPE)", "result": "5 (5=80-100%)"},
      {"measurement": "LOLPE PRE percentage damage caused to the plant (five-point scale)", "setting": "Lolium perenne (LOLPE)", "result": "5 (5=80-100%)"},
      {"measurement": "SETFA POST percentage damage caused to the plant (five-point scale)", "setting": "Setaria faberi (SETFA)", "result": "5 (5=80-100%)"},
      {"measurement": "SETFA PRE percentage damage caused to the plant (five-point scale)", "setting": "Setaria faberi (SETFA)", "result": "5 (5=80-100%)"}
    ]}
  ]
}
